Consider two compounds from paper PMC13107563 (Protein & Cell, 2025).

pEC50: −log10 of the molar value. No end group written: not given here. A value given as a limit tells only on which side of the number the result lay.

The test system of one experiment is NPFFR1 / NPFFR2. As to conditions: NPFFR1 vs NPFFR2; ref Quillet et al., 2016; cited from earlier work. The source says:
NPFFR1 primarily couples to inhibitory Gi/o proteins and regulates di ...

For a further experiment, the target named is T1, NPFFR2 T220A (Homo sapiens, UniProt Q9Y5X5, T322A).
T1 construct: expressed in transfected cells; host or cells: HEK293T (described for NPFFR1 only)
Briefly: GloSensor cAMP accumulation assay, NPFFR2 T220A. It is filed as cell-based. As to conditions: Gi signaling, three independent experiments in triplicates. A general note: Cyclic AMP is a second messenger, typically raised through Gs and lowered through Gi signalling.

The target in the next experiment is T2, NPFFR2 (WT) (Homo sapiens, UniProt Q9Y5X5).
T2 construct: expressed in transfected cells; host or cells: HEK293T (described for NPFFR1 only)
Briefly: GloSensor cAMP accumulation assay, WT NPFFR2 (Gi signaling). It is filed as cell-based. As to conditions: WT NPFFR2 (reference, 100 %WT), three independent experiments in triplicates.

T2 sequence (Q9Y5X5 103-522): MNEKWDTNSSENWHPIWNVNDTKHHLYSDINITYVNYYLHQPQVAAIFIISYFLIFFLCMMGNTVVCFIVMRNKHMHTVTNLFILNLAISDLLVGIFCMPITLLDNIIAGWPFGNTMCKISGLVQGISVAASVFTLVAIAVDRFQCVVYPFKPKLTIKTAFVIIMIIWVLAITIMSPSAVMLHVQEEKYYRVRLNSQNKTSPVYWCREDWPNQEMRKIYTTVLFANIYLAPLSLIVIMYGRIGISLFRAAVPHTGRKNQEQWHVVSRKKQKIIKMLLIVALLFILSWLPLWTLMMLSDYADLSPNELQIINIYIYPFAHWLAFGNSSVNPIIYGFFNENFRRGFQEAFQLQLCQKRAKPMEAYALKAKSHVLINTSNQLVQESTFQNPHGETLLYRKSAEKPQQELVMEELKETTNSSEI
T1 sequence (Q9Y5X5 103-522 T322A): as the sequence (Q9Y5X5 103-522) above, with T220A counted along it

As for “Neuropeptide AF (AGEGLNSQFWSLAAPQRF; ends and bridges not checked; UniProt O15130 93-110, looked up) [NPAF, peptide derived from pro-NPFFA]”, in the experiment on NPFFR1 / NPFFR2, the receptor preference result is reported as “prefer binding to NPFFR2”.
A word on the pEC50: it is the negative decadic logarithm of the EC50, by convention in mol/L. A high value points to a small EC50. A word on the Emax: it is the maximal effect, on the per cent scale that the assay sets. In the case of `CC(C)C[C@H](NC(=O)[C@H](CC(N)=O)NC(=O)[C@@H]1CCCN1C(=O)[C@@H](N)C(C)C)C(=O)N1CCC[C@H]1C(=O)N[C@@H](CCC(N)=O)C(=O)N[C@@H](CCCNC(=N)N)C(=O)N[C@@H](Cc1ccccc1)C(N)=O` [RFRP-3, RF-amide related peptide-3], the negative logarithm of the EC50 (pEC50) at NPFFR2 T220A is under 4.52. The Emax at NPFFR2 (WT) was 100%.
